Here are results for six compounds from ChEMBL document CHEMBL1154205, “Click chemistry based rapid one-pot synthesis and evaluation for protease inhibition of new tetracyclic triazole fused benzodiazepine derivatives” (Bioorg Med Chem Lett, 2009).

The nature of test [1]: Inhibition of serine protease.
Test [2] is described as follows: Inhibition of cysteine protease.
Test [3] can be described thus: Inhibition of aspartic protease.

The structures appear in SMILES notation. pIC50: −log10 of the molar value. Activity calls are given as the source filed them. No cut-off for these calls is given here.

As a reminder, the pIC50 is the IC50 on a negative log10 scale, so that one unit is a factor of ten. A higher pIC50 goes with a low IC50. Compound `O=C1c2cc(Br)ccc2-n2nncc2[C@@H]2CCCN12` had a pIC50 in test [1] of 3.54. The IC50 entry in test [2] is on record as “Not Active”. For the same compound, the inhibition entry in test [3] was “inactive”.

In turn, `O=C1c2c(cccc2[N+](=O)[O-])-n2nncc2[C@@H]2CCCN12` gave a negative logarithm of the IC50 (pIC50) in test [1] of 3.97. The IC50 entry in test [2] is given as “Not Active”. Further, in test [3], the inhibition result is “inactive”.

Regarding `Cc1cc(Br)cc2c1C(=O)N1CCC[C@H]1c1cnnn1-2`, the negative logarithm of the IC50 (pIC50) in test [1] is 3.17. For the same compound, in test [2], the IC50 entry is recorded as “Not Active”. The inhibition entry in test [3] is “inactive”.

In test [1], `O=C1c2cc(Br)ccc2-n2nncc2[C@@H]2C[C@@H](OCc3ccccc3)CN12` had a pIC50 of 3.69. Further, the IC50 entry in test [2] is given as “Not Active”. For the same compound, the inhibition result in test [3] is “inactive”.

`O=C1c2cc(I)cc(I)c2-n2nncc2[C@@H]2C[C@@H](OCc3ccccc3)CN12` gave a negative-log IC50 (pIC50) in test [1] of 3.71. For the same compound, the IC50 result in test [2] was “Not Active”. The inhibition entry in test [3] was “inactive”.

In test [1], `Cc1cccc2c1C(=O)N1C[C@H](OCc3ccccc3)C[C@H]1c1cnnn1-2` had a negative logarithm of the IC50 (pIC50) of 3.27. For the same compound, in test [2], the IC50 result is “Not Active”. Besides, the inhibition entry in test [3] is “inactive”.
